The values that follow come from publication PMC6261661 (ACS chemical neuroscience, 2018).

Holding throughout (type): cell-based
The target in one experiment is mMC1R (Mus musculus, UniProt Q01727). Put plainly: CRE/β-galactosidase reporter gene bioassay, agonist activity at mMC1R. The note with it: for mMC1R pharmacology in words: comparisons are to reference peptide 1; for mMC1R Fold Diff: fold difference in EC50 vs peptide 1, negative prefix = more potent than 1; for EC50: mMC1R EC50, agonist, HEK-293 cells stably expressing receptor, ±SEM. A general note: In a reporter assay the amount or activity of a reporter protein is the signal.

Experiment [1] addresses T1, mMC4R (Mus musculus, UniProt P56450). Kind of experiment: CRE/β-galactosidase reporter gene bioassay, agonist activity at mMC4R. The note with it: for mMC4R relative percentage of stimulation at 100 μM: ligand at 100 μM, compared to maximal response generated by α-MSH; for mMC4R Fold Diff.: fold difference in EC50 vs peptide 1, negative prefix = more potent than 1.
Experiment [2] concerns the target T1, mMC4R. Kind of experiment: Antagonist Schild analysis against agonist MTII at mMC4R. Particulars: for mMC4R pharmacology class printed in Fold Diff. column (Ant, SA): Ant = antagonist, SA = some stimulatory activity at 100 µM.
Experiment [3] has as its target T2, mMC3R (Mus musculus, UniProt P33033). Kind of experiment: Antagonist Schild analysis against agonist MTII at mMC3R. Particulars: for mMC3R pharmacology class printed in Fold Diff column (Ant, SA): Ant = antagonist, SA = some stimulatory activity at 100 µM.
The next experiment concerns the target mMC5R (Mus musculus, UniProt P41149). Put plainly: CRE/β-galactosidase reporter gene bioassay, agonist activity at mMC5R. Particulars: for mMC5R pharmacology in words: comparisons are to reference peptide 1; for mMC5R Fold Diff.: fold difference in EC50 vs peptide 1, negative prefix = more potent than 1.
The target in experiment [4] is T2, mMC3R. Put plainly: cell-based.

Square brackets hold non-standard residues; d marks the D form. Peptide text beside a SMILES is read from it. * marks the point of attachment. Bip = N[C@@H](Cc1ccc(-c2ccccc2)cc1)C(=O)O; dBip = N[C@H](Cc1ccc(-c2ccccc2)cc1)C(=O)O; dPhe(4-I) = N[C@H](Cc1ccc(I)cc1)C(=O)O; 2Nal = N[C@@H](Cc1ccc2ccccc2c1)C(=O)O; 4Pal = N[C@@H](Cc1ccncc1)C(=O)O; Tic = O=C(O)[C@@H]1Cc2ccccc2CN1; Octanoyl = CCCCCCCC(=O)*

T1 sequence (P56450 whole entry): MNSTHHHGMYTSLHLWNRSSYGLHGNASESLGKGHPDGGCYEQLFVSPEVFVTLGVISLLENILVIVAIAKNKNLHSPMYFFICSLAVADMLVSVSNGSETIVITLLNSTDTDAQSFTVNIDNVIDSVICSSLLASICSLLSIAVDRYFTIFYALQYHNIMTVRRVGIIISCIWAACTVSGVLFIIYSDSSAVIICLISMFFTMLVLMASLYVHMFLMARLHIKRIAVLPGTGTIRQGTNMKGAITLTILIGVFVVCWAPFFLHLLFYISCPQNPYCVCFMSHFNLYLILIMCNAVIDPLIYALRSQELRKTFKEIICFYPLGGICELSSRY
Sequence of mMC5R (P41149 whole entry): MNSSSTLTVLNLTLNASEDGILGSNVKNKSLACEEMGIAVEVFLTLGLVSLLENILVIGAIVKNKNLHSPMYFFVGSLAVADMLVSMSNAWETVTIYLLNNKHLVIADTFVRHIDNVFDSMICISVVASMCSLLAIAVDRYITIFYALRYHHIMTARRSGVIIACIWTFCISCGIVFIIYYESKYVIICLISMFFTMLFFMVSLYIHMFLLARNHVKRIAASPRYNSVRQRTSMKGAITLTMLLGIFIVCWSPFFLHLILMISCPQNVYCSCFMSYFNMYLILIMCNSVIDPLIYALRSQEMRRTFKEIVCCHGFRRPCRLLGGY
T2 sequence (P33033 whole entry): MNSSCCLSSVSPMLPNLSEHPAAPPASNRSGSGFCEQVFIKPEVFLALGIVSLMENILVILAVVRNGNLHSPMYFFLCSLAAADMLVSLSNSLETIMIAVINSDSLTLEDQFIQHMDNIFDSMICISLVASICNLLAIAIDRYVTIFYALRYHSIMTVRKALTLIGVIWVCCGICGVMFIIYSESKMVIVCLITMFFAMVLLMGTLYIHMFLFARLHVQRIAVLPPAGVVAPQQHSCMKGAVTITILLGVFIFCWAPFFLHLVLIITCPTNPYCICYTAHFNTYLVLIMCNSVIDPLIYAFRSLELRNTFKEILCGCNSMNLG
Sequence of mMC1R (Q01727 whole entry): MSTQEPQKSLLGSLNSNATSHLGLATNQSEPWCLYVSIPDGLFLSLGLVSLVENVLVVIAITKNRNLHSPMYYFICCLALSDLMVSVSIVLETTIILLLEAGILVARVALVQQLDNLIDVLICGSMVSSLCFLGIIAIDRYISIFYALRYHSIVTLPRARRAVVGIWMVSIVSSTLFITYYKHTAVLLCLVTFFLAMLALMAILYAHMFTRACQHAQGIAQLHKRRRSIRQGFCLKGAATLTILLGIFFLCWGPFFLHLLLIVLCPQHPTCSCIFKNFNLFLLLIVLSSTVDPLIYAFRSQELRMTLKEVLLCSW

As to `CC(=O)N[C@@H](Cc1c[nH]cn1)C(=O)N[C@H](Cc1ccc(-c2ccccc2)cc1)C(=O)N[C@@H](CCCNC(=N)N)C(=O)N[C@@H](Cc1ccc(-c2ccccc2)cc1)C(N)=O` [Peptide 33, Ac-His-DBip-Arg-Bip-NH2] (Ac-H[dBip]R[Bip]-NH2), on mMC1R, the “mMC1R pharmacology in words” value is “more potent”; the “mMC1R Fold Diff” value was −9; the EC50 – broadly, the concentration giving half of the maximal effect – is 15.8 ± 6.1 nM. Besides, the “mMC4R relative percentage of stimulation at 100 μM” value at mMC4R [1] came to 30%. Besides, at mMC4R [2], the Kb (usually the equilibrium dissociation constant of an antagonist, usually derived from a functional assay) was 158 nM and the “mMC4R pharmacology class printed in Fold Diff. column (Ant, SA)” value is listed as “Ant”. For the same molecule, at mMC3R [3], the antagonist equilibrium constant (Kb) was found to be 501 nM and the “mMC3R pharmacology class printed in Fold Diff column (Ant, SA)” value is recorded as “Ant”. On mMC5R, the EC50 worked out at 31.2 ± 4.7 nM, the “mMC5R pharmacology in words” value is “less potent” and the “mMC5R Fold Diff.” value amounted to 6.
Regarding `CC(=O)N[C@@H](Cc1ccncc1)C(=O)N[C@H](Cc1ccc(I)cc1)C(=O)N[C@@H](CCCNC(=N)N)C(=O)N[C@@H](Cc1c[nH]c2ccccc12)C(N)=O` [Peptide 16, Ac-4PAL-(pI)DPhe-Arg-Trp-NH2] (Ac-[4Pal][dPhe(4-I)]RW-NH2), on mMC1R, the “mMC1R Fold Diff” value stood at 20 and the midpoint of the response, the EC50, lay at 2900 ± 1500 nM. For the same molecule, on mMC4R [2], the Kb amounted to 1.26 nM and the “mMC4R pharmacology class printed in Fold Diff. column (Ant, SA)” value is “Ant”. The “fold preference for the mMC4R versus mMC3R” value on mMC4R [2] (antagonist) was 66 fold. Moreover, on mMC3R [3], the antagonist dissociation constant (Kb) came to 79.4 nM and the “mMC3R pharmacology class printed in Fold Diff column (Ant, SA)” value is “Ant”. Besides, on mMC5R, the EC50 was found to be 610 ± 250 nM and the “mMC5R Fold Diff.” value amounted to 114.
As to `CCCCCCCC(=O)N[C@@H](Cc1c[nH]cn1)C(=O)N[C@H](Cc1ccccc1)C(=O)N[C@@H](CCCNC(=N)N)C(=O)N[C@@H](Cc1ccc(-c2ccccc2)cc1)C(N)=O` [Peptide 2, Octanoyl-His-DPhe-Arg-Bip-NH2] (Octanoyl-H[dF]R[Bip]-NH2), on mMC1R, the “mMC1R pharmacology in words” value was “equipotent”. Also, the “mMC4R relative percentage of stimulation at 100 μM” value at mMC4R [1] was 40%. The “mMC4R pharmacology class printed in Fold Diff. column (Ant, SA)” value on mMC4R [2] is “Ant”. Moreover, at mMC5R, the “mMC5R pharmacology in words” value is listed as “decreased potencies” and the “mMC5R Fold Diff.” value stood at 12. Also, the “mMC3R relative percentage of stimulation at 100 μM” value (“mMC3R relative percentage” for short) on mMC3R [4] (100000.0) was determined as 50%−65%.
Turning to `CCCCCCCC(=O)N[C@@H](Cc1c[nH]cn1)C(=O)N[C@H](Cc1ccccc1)C(=O)N[C@@H](CCCNC(=N)N)C(=O)N[C@H](Cc1ccc(-c2ccccc2)cc1)C(N)=O` [Peptide 8, Octanoyl-His-DPhe-Arg-DBip-NH2] (Octanoyl-H[dF]R[dBip]-NH2), at mMC1R, the “mMC1R pharmacology in words” value is listed as “equipotent” and a half-maximal effect (EC50) was put at 180 ± 20 nM. Moreover, on mMC4R [2], the Kb is 50.1 nM and the “mMC4R pharmacology class printed in Fold Diff. column (Ant, SA)” value is listed as “Ant”. In addition, on mMC3R [3], the Kb is 316 nM and the “mMC3R pharmacology class printed in Fold Diff column (Ant, SA)” value was “Ant”. Besides, on mMC5R, the concentration giving a half-maximal response (EC50) came to 31 ± 3 nM, the “mMC5R pharmacology in words” value is “decreased potencies” and the “mMC5R Fold Diff.” value worked out at 6.
Turning to `CC(=O)N[C@@H](Cc1c[nH]cn1)C(=O)N[C@H](Cc1ccc(-c2ccccc2)cc1)C(=O)N[C@@H](CCCNC(=N)N)C(=O)N[C@@H](Cc1ccc2ccccc2c1)C(N)=O` [Peptide 36, Ac-His-DBip-Arg-Nal(2’)-NH2] (Ac-H[dBip]R[2Nal]-NH2), on mMC1R, the “mMC1R pharmacology in words” value was “more potent”, the “mMC1R Fold Diff” value is −8 and the 50% effective concentration (EC50) stood at 17 ± 5.4 nM. Besides, on mMC4R [1], the concentration for a half-maximal effect (EC50) is 52 ± 18 nM and the “mMC4R Fold Diff.” value is 4. Further, at mMC3R [3], the Kb was 25.1 nM and the “mMC3R pharmacology class printed in Fold Diff column (Ant, SA)” value was “SA Ant”. For the same molecule, at mMC5R, the concentration for a half-maximal effect (EC50) stood at 20.7 ± 4.1 nM, the “mMC5R pharmacology in words” value was “less potent” and the “mMC5R Fold Diff.” value is listed as 4. The “mMC3R relative percentage” value at mMC3R [4] (100000.0) was 50%.
As to `CCCCCCCC(=O)N[C@@H](Cc1c[nH]cn1)C(=O)N[C@H](Cc1ccc(-c2ccccc2)cc1)C(=O)N[C@@H](CCCNC(=N)N)C(=O)N[C@@H](Cc1c[nH]c2ccccc12)C(N)=O` [Peptide 7, Octanoyl-His-DBip-Arg-Trp-NH2], at mMC1R, the “mMC1R Fold Diff” value is on record as −40 and a half-maximal effect (EC50) was put at 3.7 ± 0.9 nM. For the same molecule, the “mMC1R fold difference in EC50, more potent than reference peptide 1” value on mMC1R (more potent agonist than 1) came out at 40 fold. At mMC4R [1], a half-maximal effect (EC50) was put at 500 ± 200 nM and the “mMC4R Fold Diff.” value is 36. Moreover, at mMC3R [3], the Kb is 63.1 nM and the “mMC3R pharmacology class printed in Fold Diff column (Ant, SA)” value was “Ant”. For the same molecule, at mMC5R, a half-maximal response (EC50) required 15 ± 4 nM and the “mMC5R pharmacology in words” value is reported as “equipotent”. Moreover, the “mMC3R relative percentage” value on mMC3R [4] (100000.0) is recorded as 50%−65%. Besides, on mMC3R [4] (ligand at 100 μM, compared to maximal response generated by α-MSH), the “mMC3R relative percentage” value is recorded as 60%.
As to `CCCCCCCC(=O)N[C@@H](Cc1cnc[nH]1)C(=O)N[C@H](Cc1ccccc1)C(=O)N[C@@H](CCCNC(=N)N)C(=O)N[C@@H](Cc1ccc(-c2ccccc2)cc1)C(N)=O` [Peptide 2, Octanoyl-His-DPhe-Arg-Bip-NH2] (Octanoyl-H[dF]R[Bip]-NH2), the results for the EC50 on mMC1R and at mMC5R were 45 ± 12 nM and 62 ± 4 nM, respectively. Also, the Kb at mMC4R [2] was found to be 100 nM.
Take `CC(=O)N[C@@H](Cc1ccc(-c2ccccc2)cc1)C(=O)N[C@H](Cc1ccc(I)cc1)C(=O)N[C@@H](CCCNC(=N)N)C(=O)N[C@@H](Cc1c[nH]c2ccccc12)C(N)=O` [Peptide 17, Ac-Bip-(pI)DPhe-Arg-Trp-NH2] (Ac-[Bip][dPhe(4-I)]RW-NH2): on mMC1R, the “mMC1R Fold Diff” value amounted to 37 and the EC50 stood at 5200 ± 1700 nM. Further, on mMC4R [2], the Kb came out at 79.4 nM and the “mMC4R pharmacology class printed in Fold Diff. column (Ant, SA)” value was “Ant”. Moreover, at mMC3R [3], the Kb was determined as 631 nM and the “mMC3R pharmacology class printed in Fold Diff column (Ant, SA)” value was “Ant”. Also, on mMC5R, the EC50 came to 440 ± 70 nM and the “mMC5R Fold Diff.” value was 83.
In the case of `CC(=O)N[C@@H](Cc1ccncc1)C(=O)N[C@H](Cc1ccc(-c2ccccc2)cc1)C(=O)N[C@@H](CCCNC(=N)N)C(=O)N[C@@H](Cc1c[nH]c2ccccc12)C(N)=O` [Peptide 22, Ac-4PAL-DBip-Arg-Trp-NH2] (Ac-[4Pal][dBip]RW-NH2), on mMC1R, the “mMC1R Fold Diff” value worked out at 14 and the half-maximal effective concentration (EC50) came to 1900 ± 720 nM. Further, on mMC4R [1], the midpoint of the response, the EC50, lay at 1300 ± 200 nM and the “mMC4R Fold Diff.” value came to 92. Further, at mMC3R [3], the antagonist dissociation constant (Kb) is 316 nM and the “mMC3R pharmacology class printed in Fold Diff column (Ant, SA)” value is “SA Ant”. In addition, on mMC5R, the EC50 amounted to 1300 ± 300 nM and the “mMC5R Fold Diff.” value stood at 235. For the same molecule, the “mMC3R relative percentage” value at mMC3R [4] (100000.0) amounted to 45%.
In the case of `CC(=O)N[C@@H](Cc1c[nH]cn1)C(=O)N[C@H](Cc1ccc(I)cc1)C(=O)N[C@@H](CCCNC(=N)N)C(=O)N1Cc2ccccc2C[C@H]1C(N)=O` [Peptide 31, Ac-His-(pI)DPhe-Arg-Tic-NH2] (Ac-H[dPhe(4-I)]R[Tic]-NH2), at mMC1R (agonist EC50), the “selectivity for the mMC1R, fold difference as compared to the mMC3R” value amounted to 120 fold; the “selectivity for the mMC1R, fold difference as compared to the mMC4R” value is given as 26 fold; the “selectivity for the mMC1R, fold difference as compared to the mMC5R” value is reported as 6 fold. Further, on mMC1R, the “mMC1R pharmacology in words” value is reported as “more potent”, the “mMC1R Fold Diff” value was −6 and the EC50 was 24 ± 4 nM. Further, at mMC4R [1], the EC50 worked out at 640 ± 60 nM and the “mMC4R Fold Diff.” value is given as 46. For the same molecule, at mMC5R, the midpoint of the response, the EC50, lay at 130 ± 30 nM; the “mMC5R pharmacology in words” value is recorded as “less potent”; the “mMC5R Fold Diff.” value was determined as 25. Moreover, the EC50 at mMC3R [4] is 2900 ± 400 nM. Also, the “mMC3R Fold Diff” value at mMC3R [4] (fold difference in EC50 vs peptide 1, negative prefix = more potent than 1) is on record as 5.
